Test results reported in patent US20160215348A1, “GENE EXPRESSION BIOMARKERS AND THEIR USE FOR DIAGNOSTIC AND PROGNOSTIC APPLICATION IN PATIENTS POTENTIALLY IN NEED OF HDAC INHIBITOR TREATMENT” (4SC AG, priority 2013, published 2016).

How the values were obtained:
Format in all cases: cell-based, human
ZFP64 [1] = assay: Nuclear protein extraction and Western blot, HepG2 cells; settings: 5 μM, 24 h, vs 0.1% DMSO
Description: (§1) After isolating nuclear fractions, ZFP64 protein levels were detected by Western Blot analysis. Histone H3 serves as nuclear loading control.
(§2) 4 h upon seeding, HepG2 cells were treated with either 0.1% DMSO or 5 μM resminostat.
(§3) 24 h upon resminostat treatment, cells were washed once with PBS before scraping and harvesting in cold PBS and transferring the cells into pre-chilled 15 ml falcon tubes. […]
(§4) From each nuclear sample 4.4 μg protein (measured via BCA protein assay) were added to the same amount of Tricine buffer (supplemented with B-Mercaptoethanol), heated at 95° C. for 5 min and then placed on ice. […]
(§5) The next day, after washing four times with Washing Buffer, membranes were incubated for 1 h with the corresponding horseradish peroxidase-conjugated anti-rabbit IgG secondary antibody at a dilution of 1/50.000 and anti-Biotin at a dilution of 1/1.000 (diluted in 10 ml 1/10 diluted SuperBlock T20 Blocking Buffer). After washing four times with Washing Buffer, HRP signals were detected using enhanced chemoluminescence and exposed to X-ray films. Subsequently, the films were scanned using the Gel Doc 2000 and the corresponding signals were quantified with the “Quantity One” Software (BioRad).

DPP3 = assay: Gene expression in peripheral blood of healthy donors treated ex vivo; settings: standardized to 0 h
Description: (§6) Hatched columns relate to blood, black columns relate to HepG2 cells, white boxes relate to HT 29 cells. Values are standardized to the value at 0 h.
(§7) Samples were obtained and gene expressions were determined with the methods as described herein below. The results are shown in below table 3 and FIGS. 2 and 3
(§8) The above values represent a mean value which was determined on the basis of 2 biological replicates, for each of which 3 technical replicates were prepared. […] The level of gene expression determined in peripheral blood samples can be correlated with a certain level of activity of HDAC in the diseased cells, e.g. by applying an appropriate conversion factor or conversion table, which may be determined for each specific disease, and/or patient group.
(§9) The High-Capacity cDNA Reverse Transcription Kit (Applied Biosystems) was used for reverse transcription of total RNA into single stranded cDNA with the aid of random hexamer primers according to the manufacturer's instructions. Briefly, for the reaction mix total RNA was mixed with random primers in excess, 4 mM dNTP Mix, 2.5 U/reaction, reverse transcriptase and nuclease free water. The reverse transcription took place in a thermal cycler under the following conditions: 25° C. for 10 min, 37° C. for 120 min, 85° C. for 5 min, followed by 4° C. for cooling down the reaction. The reverse transcription can be done in principle as well with other reverse transcriptases, primers and temperature protocols. Whenever possible, 250 ng total RNA were reverse transcribed if not available, lower amounts were used.
(§10) Custom TaqMan® Arrays (Applied Biosystems) in Format 16 were designed for the gene expression analysis of biomarkers of the present invention and housekeeping genes as outlined in table 4. These arrays allow for qPCR analysis of 8 samples per card. Of course, all reactions can be done as well by conventional qPCR analysis with specific primers.

HIST2H4A/B = assay: as above; settings: standardized to 0 h
Description: as §6, §7, §8, §9, §10

TBP = assay: as above; settings: standardized to 0 h
Description: as §6, §7, §8, §9, §10

18S [2] = assay: as above; settings: standardized to 0 h
Description: as §6, §7, §8, §9, §10

MICALL1 = assay: as above; settings: standardized to 0 h
Description: as §6, §7, §8, §9, §10

KDELC2 [3] = assay: as above; settings: standardized to 0 h
Description: as §6, §7, §8, §9, §10

CCDC43 [4] = assay: as above; settings: standardized to 0 h
Description: as §6, §7, §8, §9, §10

ZFP64 [5] = assay: as above; settings: standardized to 0 h
Description: as §6, §7, §8, §9, §10

GAPDH = assay: as above; settings: standardized to 0 h
Description: as §6, §7, §8, §9, §10

18S [6] = assay: Gene expression in HT29 cancer cells (in vitro); settings: standardized to 0 h
Description: as §6, §7, §8
(§11) To determine RNA expression levels of ZFP64 in different cancer cell lines and PBMC, the cell membranes were chemically disrupted with a buffer containing guanidine isothiocycanate, which lyses the cells and supports the binding of RNA to a silica membrane and RNA was extracted via a filter-based spin column.
as §9, §10

KDELC2 [7] = assay: Gene expression in HT29 cancer cells (in vitro); settings: standardized to 0 h
Description: as §6, §7, §8, §11, §9, §10

CCDC43 [8] = assay: Gene expression in HT29 cancer cells (in vitro); settings: standardized to 0 h
Description: as §6, §7, §8, §11, §9, §10

ZFP64 [9] = assay: Gene expression in HT29 cancer cells (in vitro); settings: standardized to 0 h
Description: as §6, §7, §8, §11, §9, §10

Histone H3 = assay: Nuclear protein extraction and Western blot, HepG2 cells (nuclear loading control); settings: 5 μM, 24 h, vs 0.1% DMSO
Description: as §1, §2, §3, §4, §5

CN(C)Cc1ccc(S(=O)(=O)n2ccc(/C=C/C(=O)NO)c2)cc1 [resminostat, (E)-3-(1-(4-((dimethylamino)methyl)phenylsulfonyl)-1H-pyrrol-3-yl)-N-hydroxyacrylamide]
ZFP64 nuclear protein levels (Western Blot) (ZFP64 [1]): diminished
Expression level, DPP3 (DPP3; 2 h): 0.57
Expression level, DPP3 (DPP3; 5 h): 0.29
Expression level, HIST2H4A/B (HIST2H4A/B; 2 h): 2.59
Expression level, HIST2H4A/B (HIST2H4A/B; 5 h): 4.11
Expression level, TBP (housekeeping gene) (TBP; 2 h): 1.03
Expression level, TBP (housekeeping gene) (TBP; 5 h): 1.11
Expression level, 18s (housekeeping gene) (18S [2]; 2 h): 0.83
Expression level, 18s (housekeeping gene) (18S [2]; 5 h): 0.66
Expression level, MICALL1 (MICALL1; 2 h): 0.30
Expression level, MICALL1 (MICALL1; 5 h): 0.10
Expression level, KDELC2 (KDELC2 [3]; 2 h): 0.47
Expression level, KDELC2 (KDELC2 [3]; 5 h): 0.07
Expression level, CCDC43 (CCDC43 [4]; 2 h): 0.29
Expression level, CCDC43 (CCDC43 [4]; 5 h): 0.35
Expression level, ZFP64 (ZFP64 [5]; 2 h): 0.24
Expression level, ZFP64 (ZFP64 [5]; 5 h): 0.15
Expression level, GAPDH (housekeeping gene) (GAPDH; 2 h): 1.16
Expression level, GAPDH (housekeeping gene) (GAPDH; 5 h): 1.38
Expression level, 18s (housekeeping gene) (18S [6]; 2 h): 0.94
Expression level, 18s (housekeeping gene) (18S [6]; 5 h): 0.91
Expression level, KDELC2 (KDELC2 [7]; 2 h): 0.79
Expression level, KDELC2 (KDELC2 [7]; 5 h): 0.35
Expression level, CCDC43 (CCDC43 [8]; 2 h): 0.82
Expression level, CCDC43 (CCDC43 [8]; 5 h): 0.53
Expression level, ZFP64 (ZFP64 [9]; 2 h): 0.58
Expression level, ZFP64 (ZFP64 [9]; 5 h): 0.25
Histone H3 levels (nuclear loading control) (Histone H3): essentially unaltered
